Measurements published in ChEMBL document CHEMBL5724709, “EUbOPEN Chemogenomics Library - IncuCyte” (2024).

What was measured:
Assay type in all cases: toxicity, cell-based
[1] = test system: HEK-293T; assay: Incucyte cell viability with HEK293T; conditions: human, 24 h, 10 µM, compound concentration 10 uM
[2] = test system: Fibroblast; assay: Incucyte cell viability with human fibroblast; conditions: 24 h, 10 µM, compound concentration 10 uM
[3] = test system: U2OS; assay: Incucyte cell viability with U2OS; conditions: human, 24 h, 10 µM, compound concentration 10 uM
Note: unitless GR value; below 1 slowed growth and below 0 cell loss.

| SMILES | Growth Rate ([1]; replicate number 1) | Growth Rate ([1]; replicate number 2) | Growth Rate ([2]; replicate number 1) | Growth Rate ([2]; replicate number 2) | Growth Rate ([3]; replicate number 1) | Growth Rate ([3]; replicate number 2) |
| --- | --- | --- | --- | --- | --- | --- |
| COc1cc(C(C)C)c2c(c1)S(=O)(=O)N(COc1cc(=O)n3cccc(OCCN4CCCCC4)c3n1)C2=O | -0.22 | -0.01 | -0.1 | -0.7 | 0.9 | 1 |
| COc1ccccc1C(=O)Nc1cc2c(cc1N1CCCCC1)n(C)c(=O)n2C | 0.58 | 0.99 | 1 | – | 1 | – |
| N[C@@H](CC(=O)N1CCN(C(c2ccc(F)cc2)c2ccc(F)cc2)CC1)C(=O)N1Cc2ccccc2C1 | 0.66 | 0.87 | 1 | – | 1 | – |
| COc1cc2c(NC3CCN(C4CCCCC4)CC3)nc(N3CCCN(C(C)C)CC3)nc2cc1OCCCN1CCCCC1 | -0.52 | -0.39 | 0.42 | 0.22 | -0.09 | 0.29 |
| N#C[C@@H]1CCCN1C(=O)[C@@H]1CCCN1C(=O)CCCc1ccccc1 | 0.6 | 0.93 | 1 | – | 1 | 0.94 |
| CC(=O)OCCN1C(=O)c2c(C)nc3ccc(S(=O)(=O)N4CCOCC4)cc3c2C1=O | 0.92 | 1 | 0.85 | 1 | 0.83 | 1 |
| NC(=O)[C@H]1CCCCc2c1[nH]c1ccc(Cl)cc21 | 0.84 | 1 | 1 | – | 0.17 | 1 |
| CC(C)[C@H](NC(=O)OCc1ccccc1)C(=O)NC(CC(=O)O)C(=O)CF (stereo not given in full) | 1 | 0.94 | 0.54 | 1 | 1 | 0.69 |
| CC(C)[C@@H]1C(=O)N(S(C)(=O)=O)[C@@H]2CCN(C(=O)/C=C/CN3CCCCC3)[C@H]21.Cl | 0.79 | 0.98 | 0.66 | 1 | 1 | 0.76 |
| CCc1ccccc1NC(=O)CSC(=O)NNC(=O)[C@H](Cc1c[nH]c2ccccc12)NC(=O)OC(C)(C)C | 0.24 | 0.54 | 1 | – | 1 | – |
| CC(C)C[C@@H](C=O)NC(=O)[C@@H](NS(=O)(=O)c1ccc(F)cc1)C(C)C | 0.64 | 0.92 | 0.96 | 1 | 0.76 | 1 |
| O=C(O)/C(S)=C/c1c[nH]c2ccc(F)cc12 | 0.73 | 0.83 | 0.7 | 1 | 0.49 | 1 |
| CNC(=O)O[C@H]1COc2ccc(N3CCN(C4COC4)CC3)cc2[C@@H]1NC(=O)c1ccc(F)cc1 | 0.89 | 0.97 | 1 | 0.67 | 1 | – |
| O=C(O)/C(S)=C/c1ccc(I)cc1 | 0.71 | 0.86 | 1 | 0.47 | 1 | – |
| CC(C)C(=O)SCCCCCCC(=O)Nc1nc(-c2ccccc2)cs1 | 0.55 | – | 1 | -0.31 | -0.42 | 0.02 |
| CC(=O)N[C@@H](Cc1ccc(O)cc1)C(=O)N[C@H](C(=O)N[C@@H](C)C(=O)N[C@H](C=O)CC(=O)O)C(C)C | 0.6 | 0.86 | 0.86 | 0.09 | 0.78 | 0.63 |

| SMILES | Growth Rate ([1]; replicate number 1) | Growth Rate ([1]; replicate number 2) | Growth Rate ([2]; replicate number 1) | Growth Rate ([2]; replicate number 2) | Growth Rate ([3]; replicate number 1) | Growth Rate ([3]; replicate number 2) |
| --- | --- | --- | --- | --- | --- | --- |
| Cc1cc(C)c(CNC(=O)c2cc(-c3ccc(N4CCN(C)CC4)nc3)cc3c2c(C)cn3C(C)C)c(=O)[nH]1 | 0.42 | 0.79 | 1 | – | 0.61 | 0.86 |
| CC1(C)c2cccc(C(=O)NO)c2CN1c1cnc(C(F)(F)F)cn1 | 0.61 | 0.71 | 1 | -0.04 | 0.15 | 1 |
| Cc1cc(/N=N/c2ccc3c(c2)CCC(=O)N3)c(N)cc1O | 0.63 | 0.88 | 1 | – | 0.36 | 1 |
| CN1CCN(c2nc(-c3ccc(C(=O)NC4(C(=O)NCC#N)CCCCC4)cc3)cs2)CC1 | 0.86 | 0.8 | 0.74 | 1 | 1 | – |
| CC(C)(O)c1ccc(-c2nc3c(F)cc(F)cc3c(=O)[nH]2)cc1 | 0.45 | 1 | 0.13 | 0.87 | 0.23 | 1 |
| CCCNC(=O)[C@H]1O[C@@H]1C(=O)N[C@H](C(=O)N1CCC[C@H]1C(=O)O)[C@@H](C)CC | 0.63 | 0.84 | 0.65 | 1 | 1 | – |
| NC(=O)c1cccc(NC(=O)CCC(=O)NCCc2cn(CCNS(=O)(=O)c3cccc(C(=O)O)c3)nn2)c1 | 0.69 | 0.77 | 0.46 | 1 | 0.49 | 1 |
| CNC[C@@H](O)COc1ccc(Cl)c(-c2nc(-c3c(C)noc3C)c(C)c(N3CC4(CCN(C(=O)OC)CC4)C3)n2)c1 | 0.46 | 0.73 | 0.24 | 1 | 1 | – |
| CCCOc1cc(OCCCCN(C)C)cc(Oc2cc3c(cc2NS(=O)(=O)c2ccc(OC)c(OC)c2)n(C)c(=O)n3C)c1.O=C(O)C(F)(F)F | 0.59 | 0.72 | 1 | – | 0.87 | 1 |
| O=C([O-])CCNc1cc(N2CCc3ccccc3CC2)nc(-c2cccnc2)n1.[Na+] | 0.83 | 0.92 | 1 | – | 0.55 | 1 |
| O=C1C(=O)N(Cc2ccccc2)c2ccc(S(=O)(=O)N3CCC[C@H]3COc3ccc(C(F)(F)F)cc3)cc21 | -0.25 | -0.13 | -0.08 | 0.99 | -0.63 | -0.25 |
| CC(=O)N[C@@H](CC(=O)O)C(=O)N[C@@H](CCC(=O)O)C(=O)N[C@H](C(=O)N[C@@H](CC(=O)O)C(=O)CCl)C(C)C.O=C(O)C(F)(F)F | 0.81 | 1 | 1 | 0.21 | 1 | – |
| Cl.Cl.O=C(O)Cn1nnc(-c2ccc(CN(CCCCOc3ccc(CN4CCCC4)cc3)CCc3ccccc3)cc2)n1 | 0.53 | 0.89 | 0.66 | 1 | 1 | 0.91 |
| COc1cc2c(NC3CCN(C)CC3)nc(N3CCCN(C)CC3)nc2cc1OCCCN(C)C | 0.78 | 1 | 1 | – | 0.63 | 1 |
| COC[C@@H]1CCCN1S(=O)(=O)c1ccc2c(c1)C(=O)C(=O)N2 | 0.88 | 1 | 0.45 | 0.8 | 1 | – |
